Assay results reported in publication PMC4942689, “Deciphering the function of the CNGB1b subunit in olfactory CNG channels” (Scientific Reports, 2016).

Columns and labels:
CNGA2RE:A4RE:B1bRE [1] = target: T1, CNGA2RE:A4RE:B1bRE (Rattus norvegicus, UniProt A0A8I5ZN27+Q00195+Q64359, R1106E/R430E/R538E); test: Channel activation during confocal patch-clamp fluorometry; assay type: biochemical; conditions: 2 μM fHcAMP; binding domain in CNGB1b also disabled
T1 construct: expressed in transfected cells; host or cells: Xenopus laevis oocytes (cRNA injection), excised inside-out patches
T1 sequence (Q00195 whole entry R538E, the tested form may be a part): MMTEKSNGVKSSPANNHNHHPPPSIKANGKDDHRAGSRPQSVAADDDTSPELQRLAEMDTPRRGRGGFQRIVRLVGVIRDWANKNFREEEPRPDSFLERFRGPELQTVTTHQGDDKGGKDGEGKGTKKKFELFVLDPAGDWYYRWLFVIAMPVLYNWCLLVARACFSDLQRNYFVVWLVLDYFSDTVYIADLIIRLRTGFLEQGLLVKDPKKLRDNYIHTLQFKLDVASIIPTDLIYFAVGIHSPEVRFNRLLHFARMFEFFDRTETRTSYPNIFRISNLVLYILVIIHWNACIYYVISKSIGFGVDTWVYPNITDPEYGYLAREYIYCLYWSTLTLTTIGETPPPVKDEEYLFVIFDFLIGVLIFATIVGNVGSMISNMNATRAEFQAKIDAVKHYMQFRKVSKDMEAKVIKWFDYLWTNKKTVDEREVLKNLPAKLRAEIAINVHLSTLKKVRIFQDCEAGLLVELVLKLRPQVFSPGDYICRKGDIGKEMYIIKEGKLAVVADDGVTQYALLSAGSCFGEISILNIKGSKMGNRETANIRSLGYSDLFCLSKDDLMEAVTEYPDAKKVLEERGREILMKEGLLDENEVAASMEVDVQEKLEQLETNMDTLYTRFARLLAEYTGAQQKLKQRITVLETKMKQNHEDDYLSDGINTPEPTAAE
T1 sequence (Q64359 whole entry R430E, the tested form may be a part): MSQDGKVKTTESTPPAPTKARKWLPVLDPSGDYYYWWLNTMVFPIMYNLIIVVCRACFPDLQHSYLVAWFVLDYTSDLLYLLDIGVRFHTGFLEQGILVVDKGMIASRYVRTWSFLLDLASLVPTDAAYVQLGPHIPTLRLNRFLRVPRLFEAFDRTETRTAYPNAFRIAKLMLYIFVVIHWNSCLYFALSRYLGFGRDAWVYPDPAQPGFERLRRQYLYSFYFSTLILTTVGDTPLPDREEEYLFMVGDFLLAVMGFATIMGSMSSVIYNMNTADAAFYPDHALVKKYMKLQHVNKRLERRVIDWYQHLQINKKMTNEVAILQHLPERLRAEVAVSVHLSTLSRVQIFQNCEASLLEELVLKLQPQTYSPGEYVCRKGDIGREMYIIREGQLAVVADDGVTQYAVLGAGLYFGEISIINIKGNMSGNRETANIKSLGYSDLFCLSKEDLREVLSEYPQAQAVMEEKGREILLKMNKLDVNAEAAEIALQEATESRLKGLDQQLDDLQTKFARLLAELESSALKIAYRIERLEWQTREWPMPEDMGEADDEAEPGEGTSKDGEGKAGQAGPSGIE
T1 sequence (A0A8I5ZN27 1-858 isoform A0A8I5ZN27-2 R657E): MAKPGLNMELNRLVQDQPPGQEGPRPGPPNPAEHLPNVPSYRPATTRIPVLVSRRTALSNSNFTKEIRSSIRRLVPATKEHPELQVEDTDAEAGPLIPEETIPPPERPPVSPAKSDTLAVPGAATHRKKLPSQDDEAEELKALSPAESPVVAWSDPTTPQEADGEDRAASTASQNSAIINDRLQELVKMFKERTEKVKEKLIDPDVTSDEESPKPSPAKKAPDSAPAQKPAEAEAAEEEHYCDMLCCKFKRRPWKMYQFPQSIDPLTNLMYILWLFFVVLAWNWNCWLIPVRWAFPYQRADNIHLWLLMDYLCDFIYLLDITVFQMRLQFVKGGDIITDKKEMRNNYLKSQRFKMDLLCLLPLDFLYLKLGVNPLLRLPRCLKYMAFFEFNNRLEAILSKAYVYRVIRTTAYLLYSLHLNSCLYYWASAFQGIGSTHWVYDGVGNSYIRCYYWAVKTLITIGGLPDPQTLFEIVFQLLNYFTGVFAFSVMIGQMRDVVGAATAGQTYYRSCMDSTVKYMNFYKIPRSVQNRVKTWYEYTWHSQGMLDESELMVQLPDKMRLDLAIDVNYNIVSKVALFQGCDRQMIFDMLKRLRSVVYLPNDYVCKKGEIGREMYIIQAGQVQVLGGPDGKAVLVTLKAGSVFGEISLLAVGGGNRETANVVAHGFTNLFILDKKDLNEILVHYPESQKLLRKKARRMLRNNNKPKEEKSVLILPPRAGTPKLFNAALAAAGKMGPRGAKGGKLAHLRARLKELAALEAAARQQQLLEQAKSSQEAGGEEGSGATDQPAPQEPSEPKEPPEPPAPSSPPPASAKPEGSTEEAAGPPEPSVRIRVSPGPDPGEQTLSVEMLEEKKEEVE
Experimental: (§1) To verify the hypothesis that the CNGB1b subunit in CNGA2:A4:B1b channels binds cyclic nucleotides, we coexpressed CNGB1b with CNGA4RE and either CNGA2RE or CNGA2TM and measured ligand binding in the presence of 10 μM fcGMP. […] To verify the specificity of the binding to the CNGB1b subunit in these heterotetrameric channels, we coexpressed the CNGB1bRE subunit with CNGA2RE and CNGA4RE.
Figure 2 In a CNGA2:A4 background the CNGB1b subunit binds both fcGMP and fHcAMP and activates the channel. (a) Binding of fcGMP to the CNGB1b subunit evokes channel activation. Binding of fcGMP to CNGB1b was observed when coexpressed with either CNGA2RE:A4RE or CNGA2TM:A4RE (upper diagram). […] (b) Binding of fHcAMP to CNGB1b was observed when coexpressed with both CNGA2RE and CNGA4RE. When disabling the binding domain of CNGB1b, the fluorescence intensity was nearly abolished. Correspondingly, CNGA2RE:A4RE:B1b channels were activated by the ligand only when the CNGB1b binding site was available.
(§2) Patch-clamp experiments were performed using an Axopatch 200B amplifier (Molecular Devices LLC, CA, U.S.A.) in the inside-out configuration. The patch pipettes for recording of macroscopic currents were pulled from borosilicate glass tubing (outer diameter 2.0 mm, inner diameter 1.0 mm; Hilgenberg GmbH, Germany). The initial resistance was 0.7–1.3 MΩ. The patches were formed as pushed inside-out patches. […] Cyclic nucleotide concentration jumps were performed using a double-barreled glass pipette mounted on a piezo-driven device. Intracellular (bath) and extracellular (pipette) solutions contained (mM) 150 KCl, 1 EGTA, 5 Hepes, pH = 7.4 with KOH. […] Currents in the absence of the cyclic nucleotide were subtracted. All patches included in this study were first tested for channel expression in the presence of a saturating ligand concentration. Only patches with large current, i.e. a large number of channels, were included in our statistics. The currents were measured at +10 mV or, if mentioned, at +100 mV.
(§3) The ligand binding was measured in macropatches by patch-clamp fluorometry[41][42] combined with confocal microscopy. […] Recordings were performed with an LSM 510 or 710 confocal microscope (Zeiss, Jena, Germany) and were triggered by the ISO3 software (MFK, Niedernhausen, Germany). To distinguish between the fluorescence of the unbound ligands from that of the bound ligands, a second dye, DY647 (Dyomics, Jena, Germany), was added to the bath solution. The 543-nm and 633-nm lines of a He-Ne laser were used to excite fcAMP/fcGMP and DY647, respectively. The method of confocal patch-clamp fluorometry has been described in detail previously.

CNGA2RE:B1b = target: T2, CNGA2RE:B1b (Rattus norvegicus, UniProt A0A8I5ZN27+Q00195, R538E); test: Ligand binding, confocal patch-clamp fluorometry; parameters: key to Ligand binding to CNGB1b: +: ligand binding to the respective modulatory subunits was either observed or not; −: ligand binding to the respective modulatory subunits was either observed or not; conditions: for Ligand binding to CNGB1b: construct CNGA2RE:B1b
T2 construct: expressed in transfected cells; host or cells: Xenopus laevis oocytes (cRNA injection), excised patches
T2 sequence (Q00195 whole entry R538E): as the sequence (Q00195 whole entry R538E, the tested form may be a part) above
T2 sequence (A0A8I5ZN27 1-858 isoform A0A8I5ZN27-2, stated change not applied): as the sequence (A0A8I5ZN27 1-858 isoform A0A8I5ZN27-2 R657E) above, with E657R counted along it
Excerpt: (§4) The channels to be studied were expressed in Xenopus oocytes. We first tested the subunit composition in our channels when coexpressing different combinations of subunits by single-channel recordings. For CNGA2:A4, CNGA2:B1b and CNGA2:A4:B1b channels we exclusively obtained the specific and easily distinguishable single-channel activity reported earlier when injecting respective amounts of RNA[7][13]. We therefore assumed that the channels formed had always the expected subunit composition. The specific binding of cyclic nucleotides and the activation of the CNG channels were measured in parallel by means of confocal patch-clamp fluorometry in excised patches, using fluorescent cyclic nucleotide derivatives. The method has been described previously.
To study ligand binding to the CNGB1b subunit selectively, the binding domain of the CNGA2 subunits was disabled by either the point mutation R538E (red crosses in the cartoons) or T539M (blue crosses in the cartoons)[13][20]. […] To this end, CNGB1b was coexpressed with CNGA2RE.
as §3

CNGA2RE:A4RE:B1bRE [2] = target: T1, CNGA2RE:A4RE:B1bRE; test: Ligand binding, confocal patch-clamp fluorometry; parameters: key to Ligand binding to CNGA4 / Ligand binding to CNGB1b: +: ligand binding to the respective modulatory subunits was either observed or not; −: ligand binding to the respective modulatory subunits was either observed or not
Excerpt: as §4, §1, §3

CNGA2RE:A4RE:B1b [3] = target: T3, CNGA2RE:A4RE:B1b (Rattus norvegicus, UniProt A0A8I5ZN27+Q00195+Q64359, R430E/R538E); test: Ligand binding, confocal patch-clamp fluorometry; parameters: key to Ligand binding to CNGA4 / Ligand binding to CNGB1b: +: ligand binding to the respective modulatory subunits was either observed or not; −: ligand binding to the respective modulatory subunits was either observed or not
T3 construct: expressed in transfected cells; host or cells: Xenopus laevis oocytes (cRNA injection), excised inside-out patches
T3 sequence (Q00195 whole entry R538E): as the sequence (Q00195 whole entry R538E, the tested form may be a part) above
T3 sequence (Q64359 whole entry R430E): as the sequence (Q64359 whole entry R430E, the tested form may be a part) above
T3 sequence (A0A8I5ZN27 1-858 isoform A0A8I5ZN27-2, stated change not applied): as the sequence (A0A8I5ZN27 1-858 isoform A0A8I5ZN27-2 R657E) above, with E657R counted along it
Excerpt: as §4, §1, §3

CNGA2RE:A4RE:B1b [4] = target: T3, CNGA2RE:A4RE:B1b; test: Concentration-activation relationship and activation by fluorescent ligands, patch-clamp; assay type: biochemical; conditions: 2 μM fHcAMP; of the saturating activation measured with 4 mM cGMP
Experimental: as §2, with “In order to determine the apparent affinity of the modulatory subunits in heterotetrameric CNGA2:A4:B1b channels for cGMP, we coexpressed each of them with disabled neighbored subunits, generating themselves activation effects only at much higher ligand concentrations. In case of two well-separated current components, this would allow us to determine the EC50 value for the CNGB1b and CNGA4 subunit in functional heterotetrameric channels. Patch-clamp” for “Patch-clamp”, “The initial resistance was 0.7–1.3 MΩ.” left out, “mV. Fits of equations to data points were performed with the 8.1G® software (OriginLab Corporation, Northampton, U.S.A.). Concentration-activation relationships were obtained by relating the actual current amplitude, I, to the maximum current amplitude elicited by a saturating concentration of ligand, Imax, and plotting this ratio as function of the ligand concentration, x.” for “mV.”

CNGA2:A4:B1b channels = target: T4, CNGA2:A4:B1b channels (Rattus norvegicus, UniProt A0A8I5ZN27+Q00195+Q64359); test: Concentration-activation relationship, inside-out patch-clamp; assay type: biochemical
T4 construct: expressed in transfected cells; host or cells: Xenopus laevis oocytes (cRNA injection 2:1:1), excised inside-out patches
T4 sequence (Q00195 whole entry): as the sequence (Q00195 whole entry R538E, the tested form may be a part) above, with E538R counted along it
T4 sequence (Q64359 whole entry): as the sequence (Q64359 whole entry R430E, the tested form may be a part) above, with E430R counted along it
T4 sequence (A0A8I5ZN27 1-858 isoform A0A8I5ZN27-2): as the sequence (A0A8I5ZN27 1-858 isoform A0A8I5ZN27-2 R657E) above, with E657R counted along it
Experimental: as §2
Fits of equations to data points were performed with the 8.1G® software (OriginLab Corporation, Northampton, U.S.A.). Concentration-activation relationships were obtained by relating the actual current amplitude, I, to the maximum current amplitude elicited by a saturating concentration of ligand, Imax, and plotting this ratio as function of the ligand concentration, x. The concentration-activation data were fitted using the Hill equation
where EC50 is the ligand concentration of half maximum effect and H the Hill coefficient.
In fHcAMP the dye DY547 is coupled to
(b) Concentration-activation relationships of the CNGA2:A4:B1b channels activated by either
The currents were recorded […]

activation (CNGA2RE:A4RE:B1bRE [1]) | Ligand binding to CNGB1b (CNGA2RE:B1b; 2 μM) | binding to the CNGB1b subunit (in words) (CNGA2RE:B1b; fHcAMP, CNGA2RE:B1b channels) | binding to the CNGB1b subunit (in words) (CNGA2RE:A4RE:B1bRE [2]; 2 μM fHcAMP, binding domain in CNGB1b also disabled) | Ligand binding to CNGB1b (CNGA2RE:A4RE:B1bRE [2]; 2 μM, construct CNGA2RE:A4RE:B1bRE) | binding to the CNGB1b subunit (in words) (CNGA2RE:A4RE:B1b [3]; 2 μM fHcAMP, CNGA2RE:A4RE:B1b channels) | Ligand binding to CNGB1b (CNGA2RE:A4RE:B1b [3]; 2 μM, construct CNGA2RE:A4RE:B1b) | channel activation (CNGA2RE:A4RE:B1b [4]) [%] | EC50 (CNGA2:A4:B1b channels; CNGA2:A4:B1b, steady-state, +10 mV, equation (1), 7-10 patches) [nM] | H (CNGA2:A4:B1b channels; Hill coefficient, CNGA2:A4:B1b, steady-state, +10 mV) | potency to open CNGA2:A4:B1b channels compared to fcAMP (CNGA2:A4:B1b channels; relative to fcAMP) | ligand binding to the CNGB1b subunit (in words) (CNGA2RE:B1b; 10 μM, CNGB1b coexpressed with CNGA2RE) | Ligand binding to CNGB1b (CNGA2RE:B1b; 10 μM) | Substance
abolished | − | did not detectably bind | abolished | − | binds | + | 3.1 ± 0.7 | 590 | 1.2 | eight times higher potency |  |  | 8-[DY-547]-AHT-cAMP [fHcAMP]
 |  |  |  |  |  |  |  |  |  |  | no ligand binding | − | 8-[DY-547]-AET-cAMP [fcAMP]
